# Data as given in US6737383B1, “Herbicidal oxadiazolidines” (priority 1999, dated 2004).
# Assays:
# bedstraw = test: Test B pre/postemergence bedstraw; assay type: in vivo, Galium aparine
# Summary of the method: (§1)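 Herbicidal effect was estimated by eye on a ten-point control scale after plants spent twelve to sixteen days in a greenhouse following soil or foliar treatment. Foliar sprays targeted plants at one to four leaves; all doses were formulated in a non-phytotoxic solvent with surfactant.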
# blackgrass = test: Test B pre/postemergence blackgrass; assay type: in vivo, Alopecurus myosuroides
# Summary of the method: as §1
# surinam grass = test: Test B pre/postemergence surinam grass; assay type: in vivo, Brachiaria decumbens
# Summary of the method: as §1
# cocklebur = test: Test B pre/postemergence cocklebur; assay type: in vivo, Xanthium strumarium
# Summary of the method: as §1
# corn = test: Test B pre/postemergence corn; assay type: in vivo, Zea mays
# Summary of the method: as §1
# crabgrass = test: Test B pre/postemergence crabgrass; assay type: in vivo, Digitaria sanguinalis
# Summary of the method: as §1
# giant foxtail = test: Test B pre/postemergence giant foxtail; assay type: in vivo, Setaria faberii
# Summary of the method: as §1
# morningglory = test: Test B pre/postemergence morningglory; assay type: in vivo, Ipomoea hederacea
# Summary of the method: as §1
# pigweed = test: Test B pre/postemergence pigweed; assay type: in vivo, Amaranthus retroflexus
# Summary of the method: as §1
# rape = test: Test B pre/postemergence rape; assay type: in vivo, Brassica napus
# Summary of the method: as §1
# soybean = test: Test B pre/postemergence soybean; assay type: in vivo, Glycine max
# Summary of the method: as §1
# sugar beet = test: Test B pre/postemergence sugar beet; assay type: in vivo, Beta vulgaris
# Summary of the method: as §1
# velvetleaf = test: Test B pre/postemergence velvetleaf; assay type: in vivo, Abutilon theophrasti
# Summary of the method: as §1
# wheat = test: Test B pre/postemergence wheat; assay type: in vivo, Triticum aestivum
# Summary of the method: as §1
# wild oat = test: Test B pre/postemergence wild oat; assay type: in vivo, Avena fatua
# Summary of the method: as §1
# purple nutsedge = test: Test B pre/postemergence purple nutsedge; assay type: in vivo, Cyperus rotundus
# Summary of the method: as §1
# rice = test: Test B flood test rice; assay type: in vivo, Oryza sativa
# Summary of the method: (§2)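 Plants were grown to the 2-leaf stage before treatment with test chemical, then held in a greenhouse for twelve to sixteen days. Injury was visually rated against untreated controls on a 0–10 scale, where 0 is no effect and 10 is complete control.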
# smallflower flatsedge = test: Test B flood test smallflower flatsedge; assay type: in vivo, Cyperus difformis
# Summary of the method: as §2
# duck salad = test: Test B flood test duck salad; assay type: in vivo, Heteranthera limosa
# Summary of the method: as §2
# bamyardgrass = test: Test B flood test barnyardgrass; assay type: in vivo, Echinochloa crus-galli
# Summary of the method: as §2
# [1] = Preemergence, Rate 62 g/ha, scale of 0 to 10 where 0 is no effect and 10 is complete control
# [2] = Preemergence, Rate 250 g/ha, scale of 0 to 10 where 0 is no effect and 10 is complete control
# [3] = Preemergence, Rate 500 g/ha, scale of 0 to 10 where 0 is no effect and 10 is complete control
# [4] = Rate 62 g/ha, Postemergence, scale of 0 to 10 where 0 is no effect and 10 is complete control
# [5] = Rate 125 g/ha, Postemergence, scale 0 to 10
# [6] = Rate 500 g/ha, Postemergence, scale 0 to 10, 0 no effect, 10 complete control
# [7] = Rate 125 g/ha, Preemergence, scale of 0 to 10 where 0 is no effect and 10 is complete control
# [8] = Rate 62 g/ha, headed Pre-emergence (flood test species), scale 0 to 10 (0 no effect, 10 complete control)
# [9] = Rate 125 g/ha, Pre-emergence, flood test species, scale 0 to 10 where 0 is no effect and 10 is complete control
# [10] = Rate 250 g/ha, Pre-emergence, flood-test species, scale 0 to 10, 0 is no effect, 10 is complete control
# [11] = Rate 500 g/ha, Pre-emergence, flood test species, scale 0 to 10 (0 no effect, 10 complete control)
smiles,measurement,setting,value
C=CCn1c(=O)on(C(=O)N(c2ccc(F)cc2)C2CCCCCC2)c1=O [Compound 249],Bedstraw plant response rating,bedstraw; [1],0
same,Bedstraw plant response rating,bedstraw; [2],0
same,"Plant response rating, Bedstraw",bedstraw; [3],0
same,Bedstraw plant response rating,bedstraw; [4],0
same,Bedstraw plant response rating,bedstraw; [5],0
same,"Plant response rating (0 to 10; 0 is no effect, 10 is complete control), Bedstraw","bedstraw; Rate 250 g/ha, Postemergence",0
same,Bedstraw plant response rating,bedstraw; [6],0
same,Blackgrass plant response rating,blackgrass; [1],0
same,Blackgrass plant response rating,blackgrass; [2],0
same,"Plant response rating, Blackgrass",blackgrass; [3],0
same,Blackgrass plant response rating,blackgrass; [4],0
same,Blackgrass plant response rating,blackgrass; [5],0
same,Blackgrass plant response rating,blackgrass; [7],0
same,"Plant response rating (0 to 10; 0 is no effect, 10 is complete control), Blackgrass","blackgrass; Rate 250 g/ha, Postemergence",0
same,Blackgrass plant response rating,blackgrass; [6],0
same,B. signalgrass plant response rating,surinam grass; [1],0
same,B. signalgrass plant response rating,surinam grass; [2],0
same,"Plant response rating, B. signalgrass",surinam grass; [3],0
same,B. signalgrass plant response rating,surinam grass; [4],0
same,B. signalgrass plant response rating,"surinam grass; Rate 125 g/ha, Postemergence, scale 0 (no effect) to 10 (complete control)",0
same,B. signalgrass plant response rating,surinam grass; [7],0
same,"Plant response rating (0 to 10; 0 is no effect, 10 is complete control), B. signalgrass","surinam grass; Rate 250 g/ha, Postemergence",0
same,B. signalgrass plant response rating,surinam grass; [6],0
same,Cocklebur plant response rating,cocklebur; [1],0
same,Cocklebur plant response rating,cocklebur; [2],0
same,"Plant response rating, Cocklebur",cocklebur; [3],0
same,Cocklebur plant response rating,cocklebur; [4],0
same,Cocklebur plant response rating,cocklebur; [5],0
same,Cocklebur plant response rating,cocklebur; [7],0
same,"Plant response rating (0 to 10; 0 is no effect, 10 is complete control), Cocklebur","cocklebur; Rate 250 g/ha, Postemergence",0
same,Cocklebur plant response rating,cocklebur; [6],0
same,Corn plant response rating,corn; [1],0
same,Corn plant response rating,corn; [2],0
same,"Plant response rating, Corn",corn; [3],0
same,Corn plant response rating,corn; [4],0
same,Corn plant response rating,corn; [5],0
same,Corn plant response rating,corn; [7],0
same,"Plant response rating (0 to 10; 0 is no effect, 10 is complete control), Corn","corn; Rate 250 g/ha, Postemergence",0
same,Corn plant response rating,corn; [6],0
same,Crabgrass plant response rating,crabgrass; [1],0
same,Crabgrass plant response rating,crabgrass; [2],0
same,"Plant response rating, Crabgrass",crabgrass; [3],2
same,Crabgrass plant response rating,crabgrass; [7],0
same,"Plant response rating (0 to 10; 0 is no effect, 10 is complete control), Crabgrass","crabgrass; Rate 250 g/ha, Postemergence",0
same,Crabgrass plant response rating,crabgrass; [6],0
same,Giant foxtail plant response rating,giant foxtail; [1],0
same,Giant foxtail plant response rating,giant foxtail; [2],3
same,"Plant response rating, Giant foxtail",giant foxtail; [3],5
same,Giant foxtail plant response rating,giant foxtail; [7],0
same,"Plant response rating (0 to 10; 0 is no effect, 10 is complete control), Giant foxtail","giant foxtail; Rate 250 g/ha, Postemergence",0
same,Giant foxtail plant response rating,giant foxtail; [6],0
same,Morningglory plant response rating,morningglory; [1],0
same,Morningglory plant response rating,morningglory; [2],0
same,"Plant response rating, Morningglory",morningglory; [3],0
same,Morningglory plant response rating,morningglory; [7],0
same,"Plant response rating (0 to 10; 0 is no effect, 10 is complete control), Morningglory","morningglory; Rate 250 g/ha, Postemergence",0
same,Morningglory plant response rating,morningglory; [6],3
same,Redroot pigweed plant response rating,pigweed; [1],0
same,Redroot pigweed plant response rating,pigweed; [2],0
same,"Plant response rating, Redroot pigweed",pigweed; [3],0
same,Redroot pigweed plant response rating,pigweed; [7],0
same,"Plant response rating (0 to 10; 0 is no effect, 10 is complete control), Redroot pigweed","pigweed; Rate 250 g/ha, Postemergence",0
same,Redroot pigweed plant response rating,pigweed; [6],3
same,Rape plant response rating,rape; [1],0
same,Rape plant response rating,rape; [2],0
same,"Plant response rating, Rape",rape; [3],0
same,Rape plant response rating,rape; [7],0
same,"Plant response rating (0 to 10; 0 is no effect, 10 is complete control), Rape","rape; Rate 250 g/ha, Postemergence",0
same,Rape plant response rating,rape; [6],0
same,Soybean plant response rating,soybean; [1],0
same,Soybean plant response rating,soybean; [2],0
same,"Plant response rating, Soybean",soybean; [3],0
same,Soybean plant response rating,soybean; [7],0
same,Soybean plant response rating,soybean; [6],4
same,Sugarbeets plant response rating,sugar beet; [1],0
same,Sugarbeets plant response rating,sugar beet; [2],0
same,"Plant response rating, Sugarbeets",sugar beet; [3],0
same,Sugarbeets plant response rating,sugar beet; [7],0
same,Sugarbeets plant response rating,sugar beet; [6],2
same,Velvetleaf plant response rating,velvetleaf; [1],0
same,Velvetleaf plant response rating,velvetleaf; [2],0
same,"Plant response rating, Velvetleaf",velvetleaf; [3],0
same,Velvetleaf plant response rating,velvetleaf; [7],0
same,Velvetleaf plant response rating,velvetleaf; [6],0
same,Wheat plant response rating,wheat; [1],0
same,Wheat plant response rating,wheat; [2],0
same,"Plant response rating, Wheat",wheat; [3],0
same,Wheat plant response rating,wheat; [7],0
same,Wheat plant response rating,wheat; [6],0
same,Wild oats plant response rating,wild oat; [1],0
same,Wild oats plant response rating,wild oat; [2],0
same,"Plant response rating, Wild oats",wild oat; [3],0
same,Wild oats plant response rating,wild oat; [7],0
same,Wild oats plant response rating,wild oat; [6],0
same,Nutsedge plant response rating,purple nutsedge; [1],0
same,Nutsedge plant response rating,purple nutsedge; [2],0
same,"Plant response rating, Nutsedge",purple nutsedge; [3],0
same,Nutsedge plant response rating,purple nutsedge; [7],0
same,"Plant response rating (0 to 10; 0 is no effect, 10 is complete control), Nutsedge","purple nutsedge; Rate 250 g/ha, Postemergence",0
same,Nutsedge plant response rating,purple nutsedge; [6],0
same,Rice plant response rating,rice; [8],0
same,Rice plant response rating,rice; [9],0
same,Rice plant response rating,rice; [10],0
same,Rice plant response rating,rice; [11],0
same,S. Flatsedge plant response rating,smallflower flatsedge; [8],0
same,S. Flatsedge plant response rating,smallflower flatsedge; [9],0
same,S. Flatsedge plant response rating,smallflower flatsedge; [10],0
same,S. Flatsedge plant response rating,smallflower flatsedge; [11],0
same,Ducksalad plant response rating,duck salad; [8],0
same,Ducksalad plant response rating,duck salad; [9],0
same,Ducksalad plant response rating,duck salad; [10],0
same,Ducksalad plant response rating,duck salad; [11],0
same,Barnyardgrass plant response rating,bamyardgrass; [8],0
same,Barnyardgrass plant response rating,bamyardgrass; [9],0
same,Barnyardgrass plant response rating,bamyardgrass; [10],0
same,Barnyardgrass plant response rating,bamyardgrass; [11],0
